Laboratory results: ChEMBL document CHEMBL2073967, “Characterisation of cerivastatin as a P-glycoprotein substrate: studies in P-glycoprotein-expressing cell monolayers and mdr1a/b knock-out mice” (Naunyn Schmiedebergs Arch Pharmacol, 2004)

Target: ATP-dependent translocase ABCB1 (Homo sapiens, UniProt P08183)
Assay: TP_TRANSPORTER: transepithelial transport in L-MDR1 cells
Type: functional, cell-based
Details: pig

Chain of ATP-dependent translocase ABCB1 (P08183 whole entry): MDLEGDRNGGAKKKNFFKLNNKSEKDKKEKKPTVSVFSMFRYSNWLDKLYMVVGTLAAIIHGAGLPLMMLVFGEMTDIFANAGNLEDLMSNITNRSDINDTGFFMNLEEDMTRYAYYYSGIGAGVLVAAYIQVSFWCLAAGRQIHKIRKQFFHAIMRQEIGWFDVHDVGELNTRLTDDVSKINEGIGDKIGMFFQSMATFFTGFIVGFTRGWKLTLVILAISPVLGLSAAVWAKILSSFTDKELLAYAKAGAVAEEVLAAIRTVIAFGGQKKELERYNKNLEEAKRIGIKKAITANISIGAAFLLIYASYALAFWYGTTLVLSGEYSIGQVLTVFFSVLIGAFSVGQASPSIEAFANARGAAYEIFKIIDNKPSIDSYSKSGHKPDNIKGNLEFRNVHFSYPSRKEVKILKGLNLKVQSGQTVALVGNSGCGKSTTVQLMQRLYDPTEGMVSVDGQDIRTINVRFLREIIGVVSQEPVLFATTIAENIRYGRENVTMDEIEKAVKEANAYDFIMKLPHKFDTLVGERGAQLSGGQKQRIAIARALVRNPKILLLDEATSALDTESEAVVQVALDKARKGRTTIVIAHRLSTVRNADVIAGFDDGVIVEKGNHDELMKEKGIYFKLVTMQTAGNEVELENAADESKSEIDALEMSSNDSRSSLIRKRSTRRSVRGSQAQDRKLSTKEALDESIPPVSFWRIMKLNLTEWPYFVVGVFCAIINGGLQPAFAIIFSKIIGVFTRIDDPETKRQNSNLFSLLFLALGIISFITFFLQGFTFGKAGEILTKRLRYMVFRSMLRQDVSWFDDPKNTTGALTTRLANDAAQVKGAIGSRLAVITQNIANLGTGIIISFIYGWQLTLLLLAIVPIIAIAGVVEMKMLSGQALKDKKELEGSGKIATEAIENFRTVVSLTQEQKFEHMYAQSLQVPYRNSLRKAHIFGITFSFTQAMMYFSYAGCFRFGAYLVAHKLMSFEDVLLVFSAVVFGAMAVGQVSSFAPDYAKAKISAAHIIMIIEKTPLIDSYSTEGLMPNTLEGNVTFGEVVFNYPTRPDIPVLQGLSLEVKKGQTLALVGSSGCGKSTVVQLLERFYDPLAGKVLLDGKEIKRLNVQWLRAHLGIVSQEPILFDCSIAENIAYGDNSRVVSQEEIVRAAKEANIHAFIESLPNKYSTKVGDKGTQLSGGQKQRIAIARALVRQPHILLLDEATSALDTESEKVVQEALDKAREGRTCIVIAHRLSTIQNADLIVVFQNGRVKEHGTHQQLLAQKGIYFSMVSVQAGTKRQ

- Activity: substrate [+]
Compound: COCc1c(C(C)C)nc(C(C)C)c(/C=C/[C@@H](O)C[C@@H](O)CC(=O)O)c1-c1ccc(F)cc1 [CERIVASTATIN]
